The values that follow come from patent publication US20110117055A1, “Methods of Treating Hepatitis C Virus with Oxoacetamide Compounds” (priority 2009, published 2011).

Each structure is given as a SMILES string.

This assay has as its system HCV2aChLuc virus. Description: In vitro HCVcc entry assay: HCV2aChLuc virus infection of Huh7 cells, Renilla luciferase read-out. Particulars: Hepatitis C virus, Huh-7, read-out: Activity class (IC50), tested according to the method of Example 3. The class given is cell-based, HCV genotype 2a.

As for `CC(C)(C)c1cc(NC(=O)C(=O)c2ccc(OCCN3CCOCC3)c3ccccc23)no1` [Compound 60], the concentration for half-maximal inhibition (IC50) is > 500 nM. For `COc1c(NC(=O)C(=O)c2ccc(OCCN3CCNC(=O)C3)c3ccccc23)cc(C(C)(C)C)cc1NS(C)(=O)=O` [Compound 53], the IC50 was > 500 nM. `COc1c(NC(=O)C(=O)c2ccc(Br)c3ccccc23)cc(C(C)(C)C)cc1NS(C)(=O)=O` [Compound 128]: the IC50 was > 500 nM. For `COc1c(NC(=O)C(=O)c2ccc(OC)c3ccccc23)cc(C(C)(C)C)cc1C(N)=O` [Compound 77], the IC50 was > 500 nM. Take `COc1c(NC(=O)C(=O)c2ccc(OCCN3CCOCC3)c3ccccc23)cc(C(C)(C)C)cc1C(=O)Nc1ccccn1` [Compound 10, 5-tert-butyl-2-methoxy-3-(2-(4-(2-morpholinoethoxy)naphthalen-1-yl)-2-oxoacetamido)-N-(pyridin-2-yl)benzamide]: the IC50 was < 5 nM. On to `COc1c(NC(=O)CCCCC2SCC3NC(=O)NC32)cc(C(C)(C)C)cc1NC(=O)C(=O)c1ccc(OCCN2CCOCC2)c2ccccc12` (centres unmarked) [Compound 120], for which the concentration for half-maximal inhibition (IC50) lay in the range of 5 to 500 nM. `O=C(Nc1ccc2c(c1)OCCO2)C(=O)c1ccc(OCCN2CCOCC2)c2ccccc12` [Compound 90]: the half-inhibitory concentration (IC50) is > 500 nM.

For the molecule `O=C(Nc1n[nH]c2ccccc12)C(=O)c1ccc(OCCN2CCOCC2)c2ccccc12` [Compound 113], the IC50 is > 500 nM. Turning to `CNc1ccc(-c2ccc(C(=O)C(=O)Nc3cc(C(C)(C)C)ccc3OC)c3ccccc23)cn1` [Compound 136], the IC50 is < 5 nM. As to `COc1c(NC(=O)C(=O)c2ccc(OCCN3CCNCC3)c3ccccc23)cc(C(C)(C)C)cc1NS(C)(=O)=O` [Compound 58], the IC50 is > 500 nM.

With `CCOc1ccc(C(=O)C(=O)Nc2cc(C(C)(C)C)ccc2OC)c2ccccc12` [Compound 19, N-(5-tert-butyl-2-methoxyphenyl)-2-(4-ethoxynaphthalen-1-yl)-2-oxoacetamide], the half-inhibitory concentration (IC50) was < 5 nM. Take `Cn1nc(C(C)(C)C)cc1NC(=O)C(=O)c1ccc(OCCN2CCOCC2)c2ccccc12` [Compound 50]: the IC50 is > 500 nM. Regarding `COc1c(C)cc(C(C)(C)C)cc1NC(=O)C(=O)c1ccc(OCCN2CCOCC2)c2ccccc12` [Compound 31], the half-maximal inhibitory concentration (IC50) was > 500 nM. Turning to `CNC(=O)c1cc(C(C)(C)C)cc(NC(=O)C(=O)c2ccc(OCCN3CCOCC3)c3ccccc23)c1OC` [Compound 6, 5-tert-butyl-2-methoxy-N-methyl-3-(2-(4-(2-morpholinoethoxy)naphthalen-1-yl)-2-oxoacetamido)benzamide], the half-maximal inhibitory concentration (IC50) is < 5 nM. On to `COc1c(NC(=O)C(=O)c2ccc(Br)c3ccccc23)cc(C(C)(C)C)cc1C(=O)NC1CC1` [Compound 135], for which the IC50 was < 5 nM. For `COc1ccc(C(C)(C)C)cc1NC(=O)C(=O)c1ccc(OC)c2ccccc12` [Compound 14, N-(5-tert-butyl-2-methoxyphenyl)-2-(4-methoxynaphthalen-1-yl)-2-oxoacetamide], the half-maximal inhibitory concentration (IC50) is < 5 nM. Then `COc1ccc(I)cc1NC(=O)C(=O)c1ccc(OCCN2CCOCC2)c2ccccc12` [Compound 121], with 5 to 500 nM; and `Cc1cc(C(C)(C)C)cc(NC(=O)C(=O)c2ccc(OCCN3CCOCC3)c3ccccc23)c1O` [Compound 30], with > 500 nM; and `COc1c(NC(=O)C(=O)c2ccc(OCCN3CCCCC3)c3ccccc23)cc(C(C)(C)C)cc1NS(C)(=O)=O` [Compound 111], with 5 to 500 nM.

Consider `O=C(NC1Cc2ccccc2C1)C(=O)c1ccc(OCCN2CCOCC2)c2ccccc12` [Compound 114], for which the half-maximal inhibitory concentration (IC50) was > 500 nM. As to `COc1c(NC(=O)C(=O)c2ccc(OCCN3CCOCC3)c3ccccc23)cc(C(C)(C)C)cc1C(=O)N1CCNC(=O)C1` [Compound 26], the IC50 was 5 to 500 nM. Take `CCCS(=O)(=O)Nc1cc(C(C)(C)C)cc(NC(=O)C(=O)c2ccc(OCC(=O)c3ccc(OC)cc3)c3ccccc23)c1OC` [Compound 84]: the IC50 is > 500 nM. Turning to `COc1c(C#N)cc(C(C)(C)C)cc1NC(=O)C(=O)c1ccc(Nc2ccnc(N3CCCC3)n2)c2ccccc12` [Compound 95], the IC50 is > 500 nM. For the molecule `CC(C)(C)c1cc(CN2CCOCC2)c(O)c(NC(=O)C(=O)c2ccc(OCCN3CCOCC3)c3ccccc23)c1` [Compound 29], the IC50 is > 500 nM. With `COc1ccc(C(C)(C)C)cc1NC(=O)C(=O)c1ccc(Nc2ccnc(N3CCOCC3)n2)c2ccccc12` [Compound 73], the IC50 was > 500 nM. Then `CNc1ccc(-c2ccc(C(=O)C(=O)Nc3cc(C(C)(C)C)cc(C(N)=O)c3OC)c3ccccc23)cn1` [Compound 137], with < 5 nM; and `COc1c(NC(=O)C(=O)c2ccc(OCCN3CCOCC3)c3ccccc23)cc(C(C)(C)C)cc1C(=O)N1CCCN(C)CC1` [Compound 102], with > 500 nM; and `COCCNC(=O)c1cc(C(C)(C)C)cc(NC(=O)C(=O)c2ccc(OCCN3CCOCC3)c3ccccc23)c1OC` [Compound 9, 5-tert-butyl-2-methoxy-N-(2-methoxyethyl)-3-(2-(4-(2-morpholinoethoxy)naphthalen-1-yl)-2-oxoacetamido)benzamide], with < 5 nM.

As to `Cc1cc(-n2nc(C(C)(C)C)cc2NC(=O)C(=O)c2ccc(OCCN3CCOCC3)c3ccccc23)ccc1F` [Compound 45], the IC50 is > 500 nM. Consider `CCCS(=O)(=O)Nc1cc(C(C)(C)C)cc(NC(=O)C(=O)c2ccc(OC)c3ccccc23)c1OC` [Compound 78], for which the half-inhibitory concentration (IC50) was in the range of 5 to 500 nM. Regarding `CC(C)(C)c1cc(NC(=O)C(=O)c2ccc(OCCN3CCOCC3)c3ccccc23)n(C(C)(C)C)n1` [Compound 59], the IC50 is > 500 nM. Turning to `COc1c(NC(=O)C(=O)c2ccc(OCCN3CCOCC3)c3ccccc23)cc(C(C)(C)C)cc1C(=O)N1CCN(C(C)C)CC1` [Compound 99], the IC50 was in the range of 5 to 500 nM. For the molecule `COc1c(NC(=O)C(=O)c2ccc(OCCN3CCOCC3)c3ccccc23)cc(C(C)(C)C)cc1C(=O)N1CCN(CC2CC2)CC1` [Compound 100], the IC50 is > 500 nM.

`COc1c(Br)cc(C(C)(C)C)cc1NC(=O)C(=O)c1ccc(OCCN2CCOCC2)c2ccccc12` [Compound 89]: the half-maximal inhibitory concentration (IC50) lay in the range of 5 to 500 nM.

For `CCNC(=O)c1cc(C(C)(C)C)cc(NC(=O)C(=O)c2ccc(OCCN3CCOCC3)c3ccccc23)c1OC` [Compound 7, 5-tert-butyl-N-ethyl-2-methoxy-3-(2-(4-(2-morpholinoethoxy)naphthalen-1-yl)-2-oxoacetamido)benzamide], the IC50 is < 5 nM. For the molecule `COc1c(NC(=O)C(=O)c2ccc(OCCN3CCOCC3)c3ccccc23)cc(C(C)(C)C)cc1-n1ccnc1` [Compound 107], the IC50 is 5 to 500 nM. Consider `COc1c(NC(=O)C(=O)c2ccc(OCCN3CCOCC3)c3ccccc23)cc(C(C)(C)C)cc1-n1ccnn1` [Compound 108], for which the IC50 was 5 to 500 nM. Consider `CC(C)(C)c1cc(NC(=O)C(=O)c2ccc(OCCN3CCOCC3)c3ccccc23)n(-c2ccccc2)n1` [Compound 34], for which the IC50 is > 500 nM. Regarding `COc1c(NC(=O)C(=O)c2ccc(OCCN3CCOCC3)c3ccccc23)cc(C(C)(C)C)cc1C(=O)N1CCOCC1` [Compound 24], the concentration for half-maximal inhibition (IC50) was 5 to 500 nM.

Consider `Cc1ccc(C(C)C)cc1NC(=O)C(=O)c1ccc(OCCN2CCOCC2)c2ccccc12` [Compound 62], for which the IC50 is 5 to 500 nM. With `COc1c(NC(=O)C(=O)c2ccc(OCCN3CCN(C)CC3)c3ccccc23)cc(C(C)(C)C)cc1NS(C)(=O)=O` [Compound 51], the IC50 is > 500 nM. Turning to `O=C(Nc1cnc2ccccc2c1)C(=O)c1ccc(OCCN2CCOCC2)c2ccccc12` [Compound 81], the IC50 is > 500 nM.

Take `CCCNC(=O)c1cc(C(C)(C)C)cc(NC(=O)C(=O)c2ccc(OCCN3CCOCC3)c3ccccc23)c1OC` [Compound 18, 5-tert-butyl-2-methoxy-3-(2-(4-(2-morpholinoethoxy)naphthalen-1-yl)-2-oxoacetamido)-N-propylbenzamide]: the half-maximal inhibitory concentration (IC50) is < 5 nM. `COc1ccc(C(C)(C)C)cc1NC(=O)C(=O)c1ccc(Br)c2ccccc12` [Compound 134]: the half-maximal inhibitory concentration (IC50) lay in the range of 5 to 500 nM. With `Cc1ccc(-n2nc(C(C)(C)C)cc2NC(=O)C(=O)c2ccc(OCCN3CC[S+]([O-])CC3)c3ccccc23)cc1` [Compound 37], the IC50 is > 500 nM. On to `COc1c(NC(=O)C(=O)c2ccc(OCCN3CCOCC3)c3ccccc23)cc(C(C)(C)C)cc1S(=O)(=O)N(C)C` [Compound 2, N-(5-tert-butyl-3-(N,N-dimethylsulfamoyl)-2-methoxyphenyl)-2-(4-(2-morpholinoethoxy)naphthalen-1-yl)-2-oxoacetamide], for which the concentration for half-maximal inhibition (IC50) was < 5 nM. On to `Cc1cccc(-n2nc(C(C)(C)C)cc2NC(=O)C(=O)c2ccc(OCCN3CCOCC3)c3ccccc23)c1C` [Compound 49], for which the 50% inhibitory concentration (IC50) was > 500 nM. Regarding `Cc1ccc(-n2nc(C(C)(C)C)cc2NC(=O)C(=O)c2ccc(OCCN3CCS(=O)(=O)CC3)c3ccccc23)cc1` [Compound 36], the IC50 is > 500 nM. Then `O=C(Nc1cc(C(F)(F)F)ccc1Cl)C(=O)c1ccc(OCCN2CCOCC2)c2ccccc12` [Compound 82], with > 500 nM. For `O=C(Nc1nc(Cl)ccc1[N+](=O)[O-])C(=O)c1ccc(OCCN2CCOCC2)c2ccccc12` [Compound 118], the half-inhibitory concentration (IC50) was > 500 nM. For the molecule `CC(C)(C)c1cc(NC(=O)C(=O)c2ccc(OCCN3CCOCC3)c3ccccc23)cc(NS(C)(=O)=O)c1` [Compound 109], the IC50 was 5 to 500 nM. As for `COc1ccc(-n2nc(C(C)(C)C)cc2NC(=O)C(=O)c2ccc(OCCN3CCOCC3)c3ccccc23)cc1` [Compound 35], the concentration for half-maximal inhibition (IC50) is > 500 nM. In the case of `COc1c(NC(=O)C(=O)c2ccc(OC)c3ccccc23)cc(C(C)(C)C)cc1NS(C)(=O)=O` [Compound 75], the IC50 was in the range of 5 to 500 nM. To `CCOc1ccc(C(C)(C)C)cc1NC(=O)C(=O)c1ccc(OCCN2CCOCC2)c2ccccc12` [Compound 41] belongs > 500 nM. Consider `COC(=O)c1sc(C(C)(C)C)cc1NC(=O)C(=O)c1ccc(OCCN2CCOCC2)c2ccccc12` [Compound 11, methyl 5-tert-butyl-3-(2-(4-(2-morpholinoethoxy)naphthalen-1-yl)-2-oxoacetamido)thiophene-2-carboxylate], for which the IC50 is < 5 nM. On to `CCNC(=O)c1cc(C(C)(C)C)cc(NC(=O)C(=O)c2ccc(-c3ccc(NC)nc3)c3ccccc23)c1OC` [Compound 138], for which the 50% inhibitory concentration (IC50) is < 5 nM.
